Common to all, as to format: cell-based
Test [1] has as its system protoplasts of the Primula rupestris petals. Nature of the test: FLIPR calcium signal detection in protoplasts of Primula rupestris petals.
Excerpt: According to the method in Example 4, the EGTA solution and the CaCl2 solution were combined to treat the change of the protoplasts of the Primula rupestris petals, and the parameters of the examples and comparative examples are shown in Table 7:
Test [2] relates to protoplasts of the valerian leaves. As to the kind of experiment: FLIPR calcium signal detection in protoplasts of valerian leaves.
Test [3] concerns protoplasts of the Primula rupestris sepals. Nature of the test: FLIPR calcium signal detection in protoplasts of Primula rupestris sepals. From the text:
According to the method in Example 4, the EGTA solution and the CaCl2 solution were combined to treat the change of the protoplasts of the Primula rupestris sepals, and the parameters of the examples and comparative examples are shown in Table 6: […]

Test [4] deals with protoplasts of the Primula rupestris leaves. As to the kind of experiment: FLIPR calcium signal detection in protoplasts of Primula rupestris leaves. Here is the method:
(1) The protoplasts prepared in Example 1 were taken out, and mixed with the calcium dye according to a ratio of protoplast: calcium dye=1:1, and a group added with only a calcium dye and without protoplasts was taken as a control group, and added to a 96-well plate of a cell plate, as shown in Table 1:
(2) A buffer (helps buffer) was used to prepare a 96-well plate of the cell plate with different concentrations of CaCl2 solutions: CaCl2 (0, 10, 20, 40, 60, 80, 100, 150, 200, 300, and 500 mM). A group without adding protoplasts was taken as a control group.
(3) The cell plate was wrapped with a plastic wrap, and incubated at 37° C. for 1 h. After the incubation, the two plates were balanced, centrifuged at 600 rpm at 4° C. for 1-2 min, and loaded on the machine.
(4) The above experiment was repeated for 10 times to observe whether the results were consistent. The order of concentrations from top to bottom in the legend on the right in FIG. 3 and the order of concentrations from left to right in Table 2 can be in one-to-one correspondence.
The buffer was used to prepare a 96-well plate of the cell plate with different concentrations of CaCl2 solutions: CaCl2 (0, 100, 200, 220, 240, 260, 280, 300, 350, 400, and 450 mM). The cell plate was wrapped with a plastic wrap, and incubated at 37° C. for 1 h. After the incubation, the two plates were balanced, centrifuged at 600 rpm at 4° C. for 1-2 min, and loaded on the machine. The order of concentrations from top to bottom in the legend on the right in FIG. 5 and the order of concentrations from left to right in Table 3 can be in one-to-one correspondence:
Using step (1) in Example 2, a buffer was used to prepare a 96-well plate of a cell plate with different concentrations of EGTA solutions: EGTA solution (0, 0.1, 0.5, 1.0, 5, 10, 25, 50, 100, 150, and 200 mM).
The cell plate was wrapped with a plastic wrap, and incubated at 37° C. for 1 h. After the incubation, the two plates were balanced, centrifuged at 600 rpm at 4° C. for 1-2 min, and loaded on the machine.
The above experiment was repeated for 10 times to observe whether the results were consistent. The order of concentrations from top to bottom in the legend on the right in FIG. 7 and the order of concentrations from left to right in Table 4 can be in one-to-one correspondence.
(1) The protoplasts prepared in Example 1 were taken out, and mixed with the calcium dye according to a ratio of protoplast: calcium dye=1:1 till a total of 150 μL, and a group added with only a calcium dye and without protoplasts was taken as a control group, and added to a 96-well plate of a cell plate.
(2) 220 mM of CaCl2 solution and 100 μM of EGTA solution were added to the 96-well plate of the cell plate in step (1).
(4) The above experiment was repeated for 10 times to observe whether the results were consistent.
The difference was that the EGTA solution and the CaCl2 solution in step (3) had different concentrations, and the corresponding parameters are shown in Table 5: […]

Where [5] appears, read: method of Example 2, FIG. 18-19.
[6] abbreviates: method of Example 2, FIG. 25-26.

In the case of `[Ca+2].[Cl-].[Cl-]` [CaCl2], the “CaCl2 concentration range in which the calcium signal changes significantly” value in test [1] (setting [5]) is 350 to 450 mM; in test [2] (setting [6]) it was 220 to 450 mM. Besides, the “concentration of the CaCl2 solution at which the calcium signal surges significantly” value was 350 mM in test [1] (setting [5]); 220 mM in test [2] (setting [6]); 300 mM in test [4] (first series 0-500 mM CaCl2, 37° C. 1 h, FIG. 2-3); 220 mM in test [4] (refined series 0-450 mM CaCl2, 37° C. 1 h, FIG. 4-5). Also, the “CaCl2 concentration at which the calcium signal changes significantly” value in test [3] (method of Example 2, FIG. 11-12) is recorded as 350 mM. Also, the “confirmed concentration of the CaCl2 solution (exogenous calcium signal stimulation)” value in test [4] (refined series, FIG. 4-5) was in the range of 220 to 450 mM.

Regarding `O=C(O)CN(CCOCCOCCN(CC(=O)O)CC(=O)O)CC(=O)O` [EGTA, ethylene glycol tetraacetic acid], the “effect of composite reaction of EGTA solution and CaCl2 solution on calcium signal fluorescence” value in test [1] (EGTA plus CaCl2, Table 7 settings, FIG. 22-23) is reported as “can chelate the change of the fluorescence caused by the exogenous calcium signal”; in test [2] (EGTA plus CaCl2, Table 8 settings, FIG. 29-30) it was “can chelate the change of the fluorescence caused by the exogenous calcium signal”; in test [3] (EGTA plus CaCl2, Table 6 settings, FIG. 15-16), “can chelate the change of the fluorescence caused by the exogenous calcium signal”; in test [4] (EGTA plus CaCl2 1:1, Table 5 settings, FIG. 8-9), “can chelate the change of the fluorescence caused by the exogenous calcium signal”. Further, the “confirmed concentration of the calcium signal chelator EGTA solution” value in test [1] (method of Example 3, FIG. 20-21) lay in the range of 5 to 200 µM; in test [2] (method of Example 3, FIG. 27-28), 0.1 to 200 µM; in test [3] (method of Example 3, FIG. 13-14) it was 5 to 200 µM. For the same compound, the “EGTA solution concentration with relatively excellent chelation effect on the calcium signal” value in test [4] (EGTA series 0-200, 37° C. 1 h, FIG. 6-7) is 5 to 200 µM.
